Test results as given in ChEMBL document CHEMBL4825755 (J Med Chem, 2021).

Key:
[1] = target: PI3-kinase p110-delta/p85-alpha (Homo sapiens, UniProt O00329); assay: Inhibition of recombinant human N-terminal His6-tagged full length P110delta/full length untagged human p85alpha expressed in baculovirus infected Sf21 insect cells using PIP2 as substrate preincubated for 15 mins followed by substrate addition and measured after 60 mins by HTRF assay
[2] = target: PI3-kinase p110-alpha/p85-alpha (Homo sapiens, UniProt P42336); assay: Inhibition of recombinant human N-terminal His6-tagged full length P110alpha/full length untagged human p85alpha expressed in baculovirus infected Sf21 insect cells using PIP2 as substrate preincubated for 15 mins followed by substrate addition and measured after 60 mins by HTRF assay
PI3K p110 beta/p85 alpha = PI3K p110 beta/p85 alpha (Homo sapiens, UniProt P42338); assay: Inhibition of recombinant human N-terminal His6-tagged full length P110beta/full length untagged human p85alpha expressed in baculovirus infected Sf21 insect cells using PIP2 as substrate preincubated for 15 mins followed by substrate addition and measured after 60 mins by HTRF assay
[3] = target: Phosphatidylinositol 4,5-bisphosphate 3-kinase catalytic subunit gamma isoform (Homo sapiens, UniProt P48736); assay: Inhibition of recombinant human N-terminal His6-tagged full length P120gamma expressed in baculovirus infected Sf21 insect cells using PIP2 as substrate preincubated for 15 mins followed by substrate addition and measured after 60 mins by HTRF assay
[4] = target: T1, Phosphatidylinositol 4,5-bisphosphate 3-kinase catalytic subunit delta isoform (Homo sapiens, UniProt O00329); assay: Inhibition of PI3Kdelta in human whole blood assessed as reduction in cytostim-stimulated IFNgamma production preincubated for 1 hr followed by cytostim stimulation and measured after 20 hrs by electrochemiluminescence assay
T1 sequence (O00329 whole entry): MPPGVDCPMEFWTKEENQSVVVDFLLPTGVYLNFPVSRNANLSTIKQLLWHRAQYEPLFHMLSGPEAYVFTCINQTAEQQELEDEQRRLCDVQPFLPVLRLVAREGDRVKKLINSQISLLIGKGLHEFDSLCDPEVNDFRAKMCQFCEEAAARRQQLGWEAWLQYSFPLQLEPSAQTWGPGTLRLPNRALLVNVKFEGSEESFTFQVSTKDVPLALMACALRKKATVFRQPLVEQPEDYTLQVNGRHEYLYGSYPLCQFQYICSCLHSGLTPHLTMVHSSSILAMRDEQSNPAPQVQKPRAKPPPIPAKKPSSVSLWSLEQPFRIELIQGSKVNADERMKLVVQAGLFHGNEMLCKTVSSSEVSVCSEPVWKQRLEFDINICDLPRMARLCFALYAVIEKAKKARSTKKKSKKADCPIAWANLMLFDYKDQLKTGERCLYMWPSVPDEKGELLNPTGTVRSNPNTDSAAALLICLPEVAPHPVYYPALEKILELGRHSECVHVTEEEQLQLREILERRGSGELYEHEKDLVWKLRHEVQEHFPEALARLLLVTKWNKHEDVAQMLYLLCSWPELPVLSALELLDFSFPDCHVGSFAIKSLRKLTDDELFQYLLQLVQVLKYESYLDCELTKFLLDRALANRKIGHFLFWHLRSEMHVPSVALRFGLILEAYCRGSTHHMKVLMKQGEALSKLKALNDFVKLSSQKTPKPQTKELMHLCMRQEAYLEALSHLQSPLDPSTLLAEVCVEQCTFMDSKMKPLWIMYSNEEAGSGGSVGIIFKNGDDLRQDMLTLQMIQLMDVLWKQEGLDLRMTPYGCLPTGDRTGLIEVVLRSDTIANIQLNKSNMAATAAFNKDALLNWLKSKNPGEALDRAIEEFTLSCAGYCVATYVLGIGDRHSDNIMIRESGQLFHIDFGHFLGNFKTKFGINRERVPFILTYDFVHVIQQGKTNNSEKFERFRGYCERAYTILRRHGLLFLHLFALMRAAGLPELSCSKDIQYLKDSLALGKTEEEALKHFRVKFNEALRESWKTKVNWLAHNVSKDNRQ

[5] = Lipophilicity, log D of compound by chromatographic method; type: physicochemical
[6] = Intrinsic clearance in Wistar Han rat liver microsomes at 0.5 uM measured up to 45 mins in presence of NADPH by LC-MS/MS analysis; type: ADME, Microsome; settings: read-out: CLH
in vitro = settings: human, pooled liver microsomes
Description: Intrinsic clearance in pooled human liver microsomes at 0.5 uM measured up to 45 mins in presence of NADPH by LC-MS/MS analysis

Sequence of Phosphatidylinositol 4,5-bisphosphate 3-kinase catalytic subunit gamma isoform (P48736 whole entry, canonical isoform): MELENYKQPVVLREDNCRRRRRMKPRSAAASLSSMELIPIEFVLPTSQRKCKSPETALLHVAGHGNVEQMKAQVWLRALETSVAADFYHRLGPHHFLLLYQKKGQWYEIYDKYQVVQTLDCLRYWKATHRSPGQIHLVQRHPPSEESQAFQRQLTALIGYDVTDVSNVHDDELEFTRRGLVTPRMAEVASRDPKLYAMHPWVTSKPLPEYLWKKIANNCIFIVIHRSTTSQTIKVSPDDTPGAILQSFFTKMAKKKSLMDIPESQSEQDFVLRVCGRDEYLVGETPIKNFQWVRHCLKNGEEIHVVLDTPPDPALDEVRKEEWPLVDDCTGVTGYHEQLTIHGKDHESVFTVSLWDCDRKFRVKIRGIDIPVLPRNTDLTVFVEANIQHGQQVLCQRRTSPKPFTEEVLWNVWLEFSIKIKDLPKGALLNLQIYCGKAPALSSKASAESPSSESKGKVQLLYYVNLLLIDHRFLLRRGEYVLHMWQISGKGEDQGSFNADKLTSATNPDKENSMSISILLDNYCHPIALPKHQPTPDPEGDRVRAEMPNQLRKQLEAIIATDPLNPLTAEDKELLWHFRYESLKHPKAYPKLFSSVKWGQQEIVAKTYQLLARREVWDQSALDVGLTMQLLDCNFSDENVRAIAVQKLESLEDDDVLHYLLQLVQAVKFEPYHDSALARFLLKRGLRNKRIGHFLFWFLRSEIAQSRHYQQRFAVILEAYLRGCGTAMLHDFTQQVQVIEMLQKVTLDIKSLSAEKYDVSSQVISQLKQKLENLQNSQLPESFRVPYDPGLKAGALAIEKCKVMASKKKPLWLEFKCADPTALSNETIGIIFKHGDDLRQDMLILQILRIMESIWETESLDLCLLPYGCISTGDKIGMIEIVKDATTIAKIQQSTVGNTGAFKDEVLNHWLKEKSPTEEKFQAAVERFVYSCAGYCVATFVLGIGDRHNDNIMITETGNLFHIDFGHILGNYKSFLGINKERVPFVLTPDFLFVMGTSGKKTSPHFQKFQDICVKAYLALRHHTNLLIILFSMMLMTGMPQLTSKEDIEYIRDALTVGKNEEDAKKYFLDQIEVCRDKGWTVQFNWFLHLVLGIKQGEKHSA
Sequence of PI3K p110 beta/p85 alpha (P27986 whole entry, canonical isoform): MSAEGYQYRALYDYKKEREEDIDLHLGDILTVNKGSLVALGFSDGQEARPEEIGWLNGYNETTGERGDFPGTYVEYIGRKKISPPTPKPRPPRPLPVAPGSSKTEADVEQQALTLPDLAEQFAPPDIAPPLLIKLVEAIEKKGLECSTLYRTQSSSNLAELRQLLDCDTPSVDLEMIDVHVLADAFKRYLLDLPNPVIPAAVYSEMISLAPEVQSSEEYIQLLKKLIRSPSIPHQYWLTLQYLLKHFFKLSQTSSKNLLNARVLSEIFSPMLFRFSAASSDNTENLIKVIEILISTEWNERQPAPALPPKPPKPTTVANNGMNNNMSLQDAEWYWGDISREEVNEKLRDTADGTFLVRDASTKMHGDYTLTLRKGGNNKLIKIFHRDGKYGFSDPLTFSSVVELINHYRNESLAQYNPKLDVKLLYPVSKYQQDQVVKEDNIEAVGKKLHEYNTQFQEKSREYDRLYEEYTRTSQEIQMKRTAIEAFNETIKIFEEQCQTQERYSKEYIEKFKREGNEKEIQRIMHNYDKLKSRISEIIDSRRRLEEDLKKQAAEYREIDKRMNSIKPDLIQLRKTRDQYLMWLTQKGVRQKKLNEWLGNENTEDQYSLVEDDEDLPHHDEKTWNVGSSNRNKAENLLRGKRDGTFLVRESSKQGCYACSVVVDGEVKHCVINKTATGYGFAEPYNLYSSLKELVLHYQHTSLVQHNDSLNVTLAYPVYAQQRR
Sequence of PI3K p110 beta/p85 alpha (P42338 whole entry, canonical isoform): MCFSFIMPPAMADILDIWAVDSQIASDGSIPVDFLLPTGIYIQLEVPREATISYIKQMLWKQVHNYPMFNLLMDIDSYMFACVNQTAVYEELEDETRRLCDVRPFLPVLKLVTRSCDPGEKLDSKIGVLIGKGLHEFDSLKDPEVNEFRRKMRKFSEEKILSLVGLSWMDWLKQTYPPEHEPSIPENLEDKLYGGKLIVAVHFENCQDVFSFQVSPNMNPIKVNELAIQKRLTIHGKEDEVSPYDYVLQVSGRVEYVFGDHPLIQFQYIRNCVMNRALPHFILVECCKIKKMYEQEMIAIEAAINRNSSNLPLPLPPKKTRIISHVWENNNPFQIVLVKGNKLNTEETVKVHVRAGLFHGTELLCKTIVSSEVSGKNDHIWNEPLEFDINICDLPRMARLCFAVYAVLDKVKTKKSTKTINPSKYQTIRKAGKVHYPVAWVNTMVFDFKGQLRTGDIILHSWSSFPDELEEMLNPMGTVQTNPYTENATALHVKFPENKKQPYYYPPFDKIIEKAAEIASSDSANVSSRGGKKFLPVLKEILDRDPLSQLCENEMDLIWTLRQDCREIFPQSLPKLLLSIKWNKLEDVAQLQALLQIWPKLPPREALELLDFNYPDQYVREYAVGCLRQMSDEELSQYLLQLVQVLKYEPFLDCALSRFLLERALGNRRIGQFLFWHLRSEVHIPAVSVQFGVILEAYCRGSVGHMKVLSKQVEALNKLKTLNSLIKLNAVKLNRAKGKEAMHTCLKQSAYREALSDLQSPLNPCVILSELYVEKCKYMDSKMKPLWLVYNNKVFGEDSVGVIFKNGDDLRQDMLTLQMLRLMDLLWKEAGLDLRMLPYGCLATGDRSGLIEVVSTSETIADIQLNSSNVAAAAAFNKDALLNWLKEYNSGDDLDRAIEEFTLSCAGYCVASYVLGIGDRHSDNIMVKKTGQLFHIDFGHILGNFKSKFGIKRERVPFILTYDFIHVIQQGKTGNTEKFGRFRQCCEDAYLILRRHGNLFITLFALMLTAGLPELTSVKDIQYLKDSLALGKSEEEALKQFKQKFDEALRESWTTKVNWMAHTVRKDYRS
Sequence of PI3-kinase p110-alpha/p85-alpha (P27986 whole entry): as the sequence (P27986 whole entry, canonical isoform) above
Sequence of PI3-kinase p110-alpha/p85-alpha (P42336 whole entry): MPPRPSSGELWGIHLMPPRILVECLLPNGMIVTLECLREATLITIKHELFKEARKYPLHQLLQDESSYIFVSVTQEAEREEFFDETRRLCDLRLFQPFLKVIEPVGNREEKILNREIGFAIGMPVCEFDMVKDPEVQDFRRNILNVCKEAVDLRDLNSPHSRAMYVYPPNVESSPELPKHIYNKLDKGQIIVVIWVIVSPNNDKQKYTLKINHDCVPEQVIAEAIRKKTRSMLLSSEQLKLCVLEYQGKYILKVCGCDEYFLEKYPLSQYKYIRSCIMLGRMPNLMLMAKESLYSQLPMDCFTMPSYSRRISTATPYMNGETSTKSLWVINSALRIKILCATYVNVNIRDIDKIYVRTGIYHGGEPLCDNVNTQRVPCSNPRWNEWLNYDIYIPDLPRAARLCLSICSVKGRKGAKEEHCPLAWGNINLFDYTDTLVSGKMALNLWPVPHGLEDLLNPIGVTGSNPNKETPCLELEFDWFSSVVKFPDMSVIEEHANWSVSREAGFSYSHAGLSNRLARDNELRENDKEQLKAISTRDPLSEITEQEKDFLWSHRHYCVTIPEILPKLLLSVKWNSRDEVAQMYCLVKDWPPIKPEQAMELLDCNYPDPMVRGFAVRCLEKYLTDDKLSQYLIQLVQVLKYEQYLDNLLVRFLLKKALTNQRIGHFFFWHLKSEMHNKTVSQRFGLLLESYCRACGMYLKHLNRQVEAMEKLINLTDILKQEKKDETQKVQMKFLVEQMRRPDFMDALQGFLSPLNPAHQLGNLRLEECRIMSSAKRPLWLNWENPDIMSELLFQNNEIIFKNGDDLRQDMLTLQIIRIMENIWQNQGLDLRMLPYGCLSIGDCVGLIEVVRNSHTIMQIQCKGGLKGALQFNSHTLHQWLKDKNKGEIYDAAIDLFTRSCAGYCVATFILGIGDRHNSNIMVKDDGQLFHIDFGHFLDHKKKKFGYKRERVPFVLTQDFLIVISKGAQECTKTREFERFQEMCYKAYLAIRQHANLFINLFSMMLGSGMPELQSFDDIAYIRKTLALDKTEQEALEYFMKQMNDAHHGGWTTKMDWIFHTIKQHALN
Sequence of PI3-kinase p110-delta/p85-alpha (P27986 whole entry, one chain of several): as the sequence (P27986 whole entry, canonical isoform) above

SMILES | IC50 [1] | Ki [1] | IC50 [2] | IC50 (PI3K p110 beta/p85 alpha) | IC50 [3] | IC50 [4] | chromatographic logD [5] | CLint scaled at 0.5 µM [6] | CLint scaled at 0.75 h, 0.5 µM (in vitro)
COc1ncc(N2CCOCC2)cc1S(=O)(=O)Nc1ccnc(-c2ccc(CN3CCN(C(C)(C)C)CC3)cc2F)c1 | 0.794 nM | 0.0251 nM | 794 nM | 3.98 µM | 2 µM | 2.51 nM | 1.9 | < 0.37 mL/min/kg | < 0.31 mL/min/kg
COc1ncc(N2CCOCC2)cc1S(=O)(=O)Nc1ccnc(-c2ccc(CN3CCC(C(C)(C)O)CC3)cc2F)c1 | 1.58 nM | 0.0501 nM | 2510 nM | 2.51 µM | 3.16 µM | 10 nM | 2.1 | < 0.46 mL/min/kg | < 0.4 mL/min/kg
COc1ncc(N2CCOCC2)cc1S(=O)(=O)Nc1ccnc(-c2ccc(CN3CCN(C(C)(C)C)CC3)cc2)c1 [listing 1 of 2 here] |  |  | 1580 nM | 6.31 µM | 3.98 µM |  |  |  | 
COc1ncc(C2=CCOCC2)cc1S(=O)(=O)Nc1cncc(-c2ccc(CN3CCCCC3)s2)c1 | 2.51 nM |  | 1580 nM | 0.1 µM | 1.58 µM | 31.6 nM | 4.7 |  | 
COc1ncc(N2CCOCC2)cc1S(=O)(=O)Nc1cncc(-c2ccc(CN3CCCC3)cc2)c1 [listing 1 of 2 here] | 20 nM |  | 5010 nM | 2 µM |  | 79.4 nM | 1.9 | < 0.46 mL/min/kg | < 0.4 mL/min/kg
COc1ncc(N2CCOCC2)cc1S(=O)(=O)Nc1ccnc(-c2ccc(CN3CCN(C(C)(C)C)CC3)cc2)c1 [listing 2 of 2 here] | 0.794 nM | 0.0251 nM |  |  |  | 7.94 nM | 1.3 | < 0.46 mL/min/kg | < 0.4 mL/min/kg
COc1ncc(C2=CCOCC2)cc1S(=O)(=O)Nc1cncc(C2CC2CN(C)C)c1 (stereo unspecified) | 126 nM |  | 6310 nM | 1.26 µM | 7.94 µM |  | 1.2 |  | 
COc1ncc(C2=CCOCC2)cc1S(=O)(=O)Nc1cncc(C2=CCN(C)CC2)c1 | 316 nM |  | 20000 nM | 5.01 µM | 5.01 µM |  | 1.5 |  | 
COc1ncc(C2=CCOCC2)cc1S(=O)(=O)Nc1ccccc1 | 200 nM |  | 3980 nM | 2.51 µM | 7.94 µM | 3980 nM |  |  | 
COc1ncc(C2=CCOCC2)cc1S(=O)(=O)Nc1cncc(-c2ccc(N3CCN(C(C)C)CC3)cc2)c1 | 3.16 nM |  | 316 nM | 0.316 µM | 7.94 µM | 50.1 nM | 3.8 |  | 
COc1ncc(C2=CCOCC2)cc1S(=O)(=O)Nc1cncc(C#CCN2C[C@@H](C)O[C@@H](C)C2)c1 | 3.98 nM |  | 6310 nM | 5.01 µM | 5.01 µM |  | 3.6 | 5.59 mL/min/kg | 3.64 mL/min/kg
COc1ncc(N2CCOCC2)cc1S(=O)(=O)Nc1cncc(-c2ccc(CN3CCCC3)cc2)c1 [listing 2 of 2 here] |  |  |  |  | 10 µM |  |  |  | 
COc1ncc(N2CCOCC2)cc1S(=O)(=O)Nc1cncc(-c2ccc(CN3CCN(C(C)C)CC3)cc2F)c1 [listing 1 of 2 here] |  |  |  |  |  | 3.16 nM |  |  | 
COc1ncc(N2CCOCC2)cc1S(=O)(=O)Nc1ccnc(-c2ccc(CN3CCN(C(C)C)CC3)c(F)c2F)c1 [listing 1 of 2 here] |  |  |  |  | 2 µM |  |  |  | 
COc1ncc(N2CCOCC2)cc1S(=O)(=O)Nc1cncc(-c2ccc(CN3CCN(C(C)C)CC3)cc2F)c1 [listing 2 of 2 here] | 1.26 nM |  | 501 nM | 3.98 µM | 2.51 µM |  | 2.6 | < 0.46 mL/min/kg | 0.65 mL/min/kg
COc1ncc(N2CCOCC2)cc1S(=O)(=O)Nc1ccnc(-c2ccc(CN3CCN(C(C)C)CC3)c(F)c2F)c1 [listing 2 of 2 here] | 1.58 nM | 0.0631 nM | 1260 nM | 5.01 µM |  | 3.16 nM | 2.2 | < 0.46 mL/min/kg | 0.47 mL/min/kg
